Values of other authors, collected in US11826586B2, “Method for dyeing keratin material, comprising the use of an organic C1-C6-alkoxy-silane and an alkalising agent” (Henkel AG & Co. KGaA, priority 2019, dated 2023).

Conditions: 25° C.

Row | solubility in water | solubility in water (in words) | Compound
1 | more than 20 % by weight | – | CCN(Cc1cccc(S(=O)(=O)O)c1)c1ccc(C(=C2C=CC(=[N+](CC)Cc3cccc(S(=O)(=O)O)c3)C=C2)c2ccccc2S(=O)(=O)[O-])cc1 [Acid Blue 9]
2 | above 40 g/L | – | O=[N+]([O-])c1cc([N+](=O)[O-])c2ccc(S(=O)(=O)O)cc2c1O [Acid Yellow 9, 8-hydroxy-5,7-dinitro-2-naphthalenesulfonic acid]
3 | – | highly soluble | O=C(O)C1=NN(c2ccc(S(=O)(=O)O)cc2)C(=O)C1N=Nc1ccc(S(=O)(=O)O)cc1 (stereo not shown) [Acid Yellow 23, 4,5-dihydro-5-oxo-1-(4-sulfophenyl)-4-((4-sulfophenyl)azo)-1H-pyrazole-3-carboxylic acid]

Row | Compound | solubility in water | solubility in water (in words)
4 | O=S(=O)(O)c1ccc(N=Nc2c(O)ccc3ccccc23)cc1 [Acid Orange 7, 4-[(2-hydroxy-1-naphthyl)azo]benzene sulphonate] | more than 7 g/L | –
